The compounds below were run against T1, sterol 14-reductase (Rattus norvegicus, UniProt A0ACM8Q6X4) (assay: Sterol 14-reductase assay with rat liver microsomes (substrate 4,4-dimethyl-5α-cholesta-7,14-dien-3β-ol, GLC)). Conditions: read-out: Enzyme Activity (relative in vitro activity for sterol 14-reductase, IC50 class).
T1 construct: to give a microsome which was used as an enzyme source of sterol 14-reductase; from tissue
T1 sequence (A0ACM8Q6X4 1-418): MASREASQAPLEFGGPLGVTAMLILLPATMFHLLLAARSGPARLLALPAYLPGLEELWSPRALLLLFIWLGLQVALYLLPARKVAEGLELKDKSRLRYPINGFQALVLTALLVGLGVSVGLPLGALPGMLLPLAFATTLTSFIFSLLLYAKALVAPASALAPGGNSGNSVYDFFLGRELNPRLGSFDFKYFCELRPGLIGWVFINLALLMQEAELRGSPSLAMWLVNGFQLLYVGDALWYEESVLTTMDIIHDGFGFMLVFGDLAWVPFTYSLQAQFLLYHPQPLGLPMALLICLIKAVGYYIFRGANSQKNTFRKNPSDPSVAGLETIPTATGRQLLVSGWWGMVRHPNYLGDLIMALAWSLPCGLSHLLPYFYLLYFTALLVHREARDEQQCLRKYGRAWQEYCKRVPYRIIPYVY
Type: biochemical, Sprague-Dawley rats
Description: First, a screening system for sterol 14-reductase was constructed in which 4,4-dimethyl-5α-cholesta-7,14-dien-3β-ol is used as a substrate and then, the effect on the activity of sterol 14-reductase was investigated in the screening system.
The animals were fasted for 12 hours before excising liver tissues and then sacrificed by decapitation at midnight. An aqueous solution containing 0.25M of sucrose was injected into the hepatic portal vein to remove all the blood within the liver, and then, the liver was excised. The liver was homogenated with two volummes of buffer solution 1 (0.1 M potassium phosphate , 1 mM reduced glutathione, 0.5 mM EDTA, 20% (v/v) glycerol, pH 7.4) by repeating pestles over 10 times and then, centrifuged with 900×g for 5 minutes to give a supernatant. The supernatant was centrifuged with 12,000×g for 20 minutes. The supernatant obtained was ultracentrifuged with 105,000×g for 90 minutes to give a microsome which was used as an enzyme source of sterol 14-reductase. Assay against sterol 14-reductase was carried out as follows: 60 nmol of 4,4-dimethyl-5α-cholesta-7,14-dien-3β-ol and the extract from Corydalis Turtschaninowii Besser dissolved into DMSO were added to an assay mixture (total volume 1.0 ml) containing 2 mg of microsomal protein, 2 mM of NADPH and 25 mg of glucose plus 20 units of glucose oxidase with preincubations under nitrogen at 37° C. for 4 min unless otherwise specified to establish anaerobic condition. Buffer A (0.1M potassium phosphate buffer, pH 7.4, including 1 mM reduced glutathione, 0.5 mM EDTA, and 20% (v/v) glycerol) used for incubation had been equilibrated with nitrogen, and nitrogen was exchanged for air in all sealed reaction flasks prior to the start of incubations. Incubation of the complete mixture was carried out anaerobically in sealed flasks for 10 min at 37° C. unless otherwise indicated. Incubations were terminated by the addition of 1 ml of ethanolic KOH followed by heating under reflux for 10 min. Sterols were extracted four times with 4 ml of petroleum ether, and the solvent was evaporated to dryness under a nitrogen stream. The resulting residue was dissolved in 200-500 μl of n-hexane for quantification by GLC at high sensitive attenuation. The activity of sterol 14-reductase was determined with the amount of the substrate wherein the double bonds of 14-carbon were reduced (for the amount reduced by 1 mg of the microsome protein for 1 minute).

Compound	IC50
CCC1c2c(ccc(OC)c2OC)C=C2c3cc4c(cc3CCN21)OCO4 (stereo not drawn) [Compound No. 28, 8-Ethyldihydroberberine]	≥ 100 µM
COc1ccc2c(c1OC)C(C1CC1)N1CCc3cc4c(cc3C1=C2)OCO4 (stereo not drawn) [Compound No. 36]	≥ 100 µM
COc1cc2c(cc1OC)-c1c(CC3CC3)c3ccc(OC)c(OC)c3c[n+]1CC2 [Compound No. 13, 13-(cyclopropylmethyl)palmatine]	≥ 100 µM
CCC1=C2c3cc(OC)c(OC)cc3CCN2C(CC(=O)C(C)C)c2c1ccc(OC)c2OC (stereo not drawn) [Compound No. 39, 8-(3-methylbutan-2-one-1-yl)-13-ethyldihydro palmatine]	10 to 100 µM
C=CCc1c2[n+](cc3c(O)c(O)ccc13)CCc1cc(O)c(O)cc1-2 [Compound No. 10, 2,3,9,10-Tetrahydroxy-13-allylberberine]	≥ 100 µM
COc1ccc2c(c1OC)C(CC1CCCCC1)N1CCc3cc4c(cc3C1=C2)OCO4 (stereo not drawn) [Compound No. 31, 8-Cyclohexylmethyldihydroberberine]	≥ 100 µM
CCC1=C2c3cc(OC)c(OC)cc3CCN2C(CC(=O)CC(C)C)c2c1ccc(OC)c2OC (stereo not drawn) [Compound No. 40, 8-(4-methylpentan-2-one-1-yl)-13-ethyldihydropalmatine]	10 to 100 µM
Oc1cc2c(cc1O)-c1cc3ccc(O)c(O)c3c[n+]1CC2 [Compound No. 3, 2,3,9,10-Tetrahydroxyberberine]	≥ 100 µM
CCOc1cc2c(cc1OCC)C1=C(CC)c3ccc(OCC)c(OCC)c3C(CC(C)=O)N1CC2 (stereo not drawn) [Compound No. 44, 8-Acetonyl-13-ethyl-2,3,9,10-tetraethoxy-dihydroprotoberberine]	10 to 100 µM
COc1cc2c(cc1OC)C1=Cc3ccc(OC)c(OC)c3C(C)N1CC2 (stereo not drawn) [Compound No. 33, 8-Methyldihydropalmatine]	≥ 100 µM
COc1cc2c(cc1OC)-c1c(CC3CCCCC3)c3ccc(OC)c(OC)c3c[n+]1CC2 [Compound No. 15, 13-(cyclohexylmethyl)palmatine]	≥ 100 µM
COc1cc2c(cc1OC)-c1c(CCCI)c3ccc(OC)c(OC)c3c[n+]1CC2 [Compound No. 16, 13-Iodopropylpalmatine]	10 to 100 µM
COc1ccc2c(c1OC)C(C(C)C)N1CCc3cc4c(cc3C1=C2)OCO4 (stereo not drawn) [Compound No. 32, 8-i-propyldihydroberberine]	≥ 100 µM
COc1ccc2c(C)c3[n+](cc2c1OC)CCc1cc(O)c(O)cc1-3 [Compound No. 2, 2,3-Dihydroxy-13-methylberberine]	10 to 100 µM
CCC1=C2c3cc(OC)c(OC)cc3CCN2C(CC#N)c2c1ccc(OC)c2OC (stereo not drawn) [Compound No. 41, 8-Cyanomethyl-13-ethyldihydropalmatine]	≥ 100 µM
CCCCCCCCC1c2c(ccc(OC)c2OC)C=C2c3cc4c(cc3CCN21)OCO4 (stereo not drawn) [Compound No. 35]	≥ 100 µM
C=CCc1c2[n+](cc3c(OC)c(OC)ccc13)CCc1cc3c(cc1-2)OCO3 [Compound No. 9, 13-Allylberberine]	≥ 100 µM
CCCCCCCCc1c2[n+](cc3c(OC)c(OC)ccc13)CCc1cc(OC)c(OC)cc1-2 [Compound No. 14, 13-n-octylpalmatine]	≥ 100 µM
CCOC(=O)Cc1c2[n+](cc3c(OC)c(OC)ccc13)CCc1cc(OC)c(OC)cc1-2 [Compound No. 20, 13-Ethoxycarbonylmethylpalmatine]	≥ 100 µM
CCOC(=O)Cc1c2[n+](cc3c(OC)c(OC)ccc13)CCc1cc3c(cc1-2)OCO3 [Compound No. 24, 13-Ethoxycarbonylmethylberberine]	≥ 100 µM
CCCCC1c2c(ccc(OC)c2OC)C(CC)=C2c3cc(OC)c(OC)cc3CCN21 (stereo not drawn) [Compound No. 50, 8-n-butyl-13-ethyldihydropalmatine]	≥ 100 µM

Source: US6255317A, “Cholesterol biosynthesis inhibitors” (Hanwha Chemical Corporation, priority 1998, dated 2001)
